According to US20250332173A1, “COMPOUNDS AND METHODS FOR MODULATING NUCLEIC ACID SPLICING” (REMIX THERAPEUTICS INC., priority 2021, published 2025):
Counter-ions that a name gives are not always drawn. Like-named read-outs stand apart in the source and are kept apart here.

How the values were obtained:
MYB mRNA = experiment: RT-qPCR splicing assay, MYB canonical junction (CJ) and alternative junction (AJ) mRNA; assay type: cell-based, human; conditions: Homo sapiens; for AC50: increase in MYB alternative junction (AJ) mRNA, read-out: MYB AJ AC50
In short: (§1)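 A673 cells (normalized to PPIA) or K562 cells (normalized to GAPDH or GUSB) were treated 24 h at 37 °C with an 11-point 3-fold dilution series, top 10 uM, DMSO ≤0.25%. Cell lysates went to one-step RT-qPCR measuring canonical- and alternative-junction MYB or HTT transcripts.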

HTT mRNA = experiment: RT-qPCR splicing assay, HTT canonical junction (CJ) and alternative junction (AJ) mRNA; assay type: cell-based, human; conditions: Homo sapiens; for AC50: increase in HTT alternative junction (AJ) mRNA, read-out: HTT AJ AC50
In short: as §1

[1] = Table 5 panel, canonical junction qPCR, compound concentration having 50% response in CJ decrease, read-out: MYB IC50 (decrease in CJ mRNA levels)
[2] = decrease in MYB canonical junction (CJ) mRNA, RT-qPCR, read-out: MYB CJ IC50
[3] = decrease in HTT canonical junction (CJ) mRNA, RT-qPCR, read-out: HTT CJ IC50
[4] = Table 5 panel, canonical junction qPCR, compound concentration having 50% response in CJ decrease, read-out: HTT IC50 (decrease in CJ mRNA levels)

Compound | IC50 (MYB mRNA; [1]) [nM] | IC50 (MYB mRNA; [2]) [nM] | AC50 (MYB mRNA; RT-qPCR) [nM] | IC50 (HTT mRNA; [3]) [nM] | AC50 (HTT mRNA; RT-qPCR) [nM] | IC50 (HTT mRNA; [4]) [nM]
CCN1CCC(n2ncc3cc(-c4cc(C)c5nc(C)cn5n4)cc(O)c3c2=O)CC1 [Compound 542] | < 100 | < 100 | < 100 | < 100 | < 100 | < 100
Cc1cn2nc(-c3cc(O)c4c(=O)n(C5CCN(C)CC5)ncc4c3)cc(C)c2n1 [Compound 543] | 100 to 1000 | 100 to 1000 | 100 to 1000 | 100 to 1000 | < 100 | < 100
Cc1cn2nc(-c3ccc4c(=O)n(C5CCNCC5)ccc4c3)cc(Oc3ccccc3F)c2n1 [Compound 544, 6-[8-(2-fluorophenoxy)-2-methyl-imidazo[1,2-b]pyridazin-6-yl]-2-(4-piperidyl) isoquinolin-1-one; hydrochloride] | 100 to 1000 | < 100 | 100 to 1000 | < 100 | < 100 | < 100
Cc1cn2nc(-c3ccc4c(=O)n(C5CCNCC5)ccc4c3)cc(Oc3cccc(F)c3)c2n1 [Compound 545, 6-[8-(3-fluorophenoxy)-2-methyl-imidazo[1,2-b]pyridazin-6-yl]-2-(4-piperidyl)isoquinolin-1-one; hydrochloride] | < 100 | < 100 | < 100 | < 100 | < 100 | < 100
Cc1cn2nc(-c3ccc4c(=O)n(C5CCNCC5)ccc4c3)cc(Oc3ccc(F)cc3)c2n1 [Compound 546, 6-[8-(4-fluorophenoxy)-2-methyl-imidazo[1,2-b]pyridazin-6-yl]-2-(4-piperidyl) isoquinolin-1-one; hydrochloride] | < 100 | < 100 | < 100 | < 100 | < 100 | < 100
COc1cccc(Oc2cc(-c3ccc4c(=O)n(C5CCNCC5)ccc4c3)nn3cc(C)nc23)c1 [Compound 547, 6-[8-(3-methoxyphenoxy)-2-methyl-imidazo[1,2-b]pyridazin-6-yl]-2-(4 piperidyl) isoquinolin-1-one] | < 100 | < 100 | < 100 | < 100 | < 100 | < 100
Cc1cn2nc(-c3cc(F)c4c(=O)n(C5CCNCC5)ncc4c3)cc(Oc3ccccc3)c2n1 [Compound 548, 8-fluoro-6-(2-methyl-8-phenoxy-imidazo[1,2-b]pyridazin-6-yl)-2-(4-piperidyl)phthala-zin-1-one] | < 100 | < 100 | < 100 | < 100 | < 100 | < 100
Cc1cn2nc(-c3ccc4c(=O)n(C5CCNCC5)ncc4c3)cc(Oc3ccccc3)c2n1 [Compound 549, 6-(2-methyl-8-phenoxy-imidazo[1,2-b]pyridazin-6-yl)-2-(4-piperidyl) phthalazin-1-one] | < 100 | 100 to 1000 | < 100 | < 100 | < 100 | < 100
Cc1cn2nc(-c3ccc4c(=O)n(C5CCNCC5)ccc4c3)cc(Oc3cccnc3)c2n1 [Compound 550, 6-[2-methyl-8-(3-pyridyloxy)imidazo[1,2-b]pyridazin-6-yl]-2-(4-piperidyl)isoquinolin-1-one] | < 100 | < 100 | < 100 | < 100 | < 100 | < 100
Cc1cn2nc(-c3ccc4c(=O)n(C5CCNCC5)ccc4c3)cc(-n3ccc(=O)cc3)c2n1 [Compound 551, 6-[2-methyl-8-(4-oxo-1-pyridyl)imidazo[1,2-b]pyridazin-6-yl]-2-(4-piperidyl)isoquinolin-1-one] | 100 to 1000 | 100 to 1000 | 100 to 1000 | 100 to 1000 | 100 to 1000 | 100 to 1000
Cc1cn2nc(-c3ccc4c(=O)n(C5CCNCC5)ccc4c3)cc(-n3ccccc3=O)c2n1 [Compound 552, 6-[2-methyl-8-(2-oxo-1-pyridyl)imidazo[1,2-b]pyridazin-6-yl]-2-(4-piperidyl)isoquinolin-1-one] | > 10000 | > 10000 | > 10000 | > 10000 | > 10000 | > 10000
Cc1cn2nc(-c3cc(O)c4c(=O)n(C5CCN(CCF)CC5)ncc4c3)cc(C)c2n1 [Compound 553] | 100 to 1000 | 100 to 1000 | 100 to 1000 | < 100 | < 100 | < 100
Cc1cc(-c2cc(F)c3c(=O)n(C4CCNC5(CC5)C4)ncc3c2)cc2cn(C)nc12 (stereo not drawn) [Compound 554] | 100 to 1000 | 100 to 1000 | 100 to 1000 | 100 to 1000 | 100 to 1000 | 100 to 1000
Cc1nc2c(C)cc(-c3cc(F)c4c(=O)n(C5CCNC6(CC6)C5)ncc4c3)cc2o1 (stereo not drawn) [Compound 555] | 100 to 1000 | 100 to 1000 | 100 to 1000 | < 100 | < 100 | < 100
Cc1cn2cc(-c3cc(F)c4c(=O)n(C5CCNC6(CC6)C5)ncc4c3)cc(Cl)c2n1 (stereo not drawn) [Compound 556] | 100 to 1000 | 100 to 1000 | 100 to 1000 | 100 to 1000 | 100 to 1000 | 100 to 1000
Cc1cn2cc(-c3cc(O)c4c(=O)n(C5CCNC6(CC6)C5)ncc4c3)cc(Cl)c2n1 (stereo not drawn) [Compound 557] | 100 to 1000 | 100 to 1000 | 100 to 1000 | 100 to 1000 | 100 to 1000 | 100 to 1000
CCc1cn(C2CCNCC2)c(=O)c2c(F)cc(-c3cc(F)c4nc(C)cn4c3)cc12 [Compound 558, 4-ethyl-8-fluoro-6-{8-fluoro-2-methylimidazo[1,2-a]pyridin-6-yl}-2-(piperidin-4-yl)isoquinolin-1-one] | 100 to 1000 | 100 to 1000 | 100 to 1000 | 1000 to 10000 | 1000 to 10000 | 1000 to 10000
C=Cc1cn(C2CCNCC2)c(=O)c2c(F)cc(-c3cc(F)c4nc(C)cn4c3)cc12 [Compound 559, 4-ethenyl-8-fluoro-6-{8-fluoro-2-methylimidazo[1,2-a]pyridin-6-yl}-2-(piperidin-4-yl)isoquinolin-1-one] | < 100 | < 100 | < 100 | 100 to 1000 | < 100 | < 100
Cc1cn2cc(-c3ccc4c(=O)n(C5CCNCC5)ccc4c3)cc(C#N)c2n1 [Compound 560, 2-methyl-6-[1-oxo-2-(piperidin-4-yl)isoquinolin-6-yl]imidazo[1,2-a]pyridine-8-carbonitrile] | 100 to 1000 | 100 to 1000 | 100 to 1000 | 1000 to 10000 | 100 to 1000 | 100 to 1000
Cc1cc(-c2cc(O)c3c(=O)n(C4CCNC5(CC5)C4)ncc3c2)cc2cn(C)nc12 (stereo not drawn) [Compound 561] | 1000 to 10000 | 100 to 1000 | 1000 to 10000 | 100 to 1000 | 100 to 1000 | 100 to 1000
Cc1cn2nc(-c3cc4ncn(C5CCNCC5)c(=O)c4cc3F)cc(C)c2n1 [Compound 585, 7-{2,8-dimethylimidazo[1,2-b]pyridazin-6-yl}-6-fluoro-3-(piperidin-4-yl)quinazolin-4-one] | 1000 to 10000 | 1000 to 10000 | 1000 to 10000 | 1000 to 10000 | 1000 to 10000 | 1000 to 10000
Cc1cn2cc(-c3cc4ncn(C5CCNCC5)c(=O)c4cc3F)cc(F)c2n1 [Compound 586, 6-fluoro-7-{8-fluoro-2-methylimidazo[1,2-a]pyridin-6-yl}-3-(piperidin-4-yl)quinazolin-4-one] | 100 to 1000 | 100 to 1000 | 100 to 1000 | 1000 to 10000 | 100 to 1000 | 100 to 1000
